According to patent US20250346582A1, “SPLEEN TYROSINE KINASE INHIBITORS AND METHODS OF USE THEREOF” (THE BOARD OF TRUSTEES OF THE UNIVERSITY OF ILLINOIS, priority 2022, published 2025):
Read-outs that look alike come from different tables or passages of the source.

Columns and labels:
[1] = molecular target: T1, BLNK-SH2 (Homo sapiens, UniProt Q8WV28); test: Fluorescence quenching vesicle binding assay, BLNK-SH2; conditions: Table 2, BLNK-SH2 binding to POPC/POPS/PIP3/dabsyl-PE vesicles; for Emax: read-out: Imax (%)
T1 construct: All SH2 domain constructs were cloned into the pRSET-B vector; polyhistidine (N); made in house; host or cells: Escherichia coli BL21 (DE3) pLysS
T1 sequence (Q8WV28 346-453 limits assumed): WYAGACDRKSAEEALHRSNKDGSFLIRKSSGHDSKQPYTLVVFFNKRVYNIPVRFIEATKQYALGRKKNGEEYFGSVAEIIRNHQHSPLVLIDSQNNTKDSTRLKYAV
Method: (§1) The membrane-binding assay is based on fluorescence quenching of EGFP fused to a SH2 domain by a dark quencher containing lipid, dabsyl-PE, incorporated in lipid vesicles. The plate reader assay was performed using the Synergy™ Neo spectrofluorometer at 25° C. Nontreated black polystyrene 96-well plates (Corning) were used. Protein (10-50 nM) with the increasing concentration of vesicles with a given lipid composition in 20 mM Tris buffer, pH 7.4, containing 0.16 M NaCl was added to each row of wells and the EGFP fluorescence emission at 516 nm was measured with excitation set at 485 nm. Z′ factor for the assay system was determined as described^74. Imax and IC50 values of inhibitors were determined using the equation, I=Imax/(1+IC50/[I]) where I and [I] indicate % inhibition and inhibitor concentration, respectively. The average and standard deviation values were obtained from triplicate determinations.
(§2) We also optimized a recently developed fluorescence quenching-based lipid-binding assay^47 for high-throughput screening of these molecules for their inhibitory activity against the PIP3-SH2 interaction. Specifically, we expressed SH2 domains as EGFP-tagged proteins and directly quantified their membrane binding by monitoring the quenching of EGFP fluorescence emission intensity by a dark quencher-containing lipid, N-dimethylaminoazo-benzenesulfonyl-phosphatidylethanolamine (dabsyl-PE), incorporated in the vesicles. We then screened for compounds that inhibited binding of Syk-cSH2, BLNK-SH2, and PLCγ2-cSH2, respectively, to 1-palmitoyl-2-oleoyl-PC (POPC)/1-palmitoyl-2-oleoyl-PS (POPS)/PIP3/dabsyl-PE (67:20:3:10) vesicles while eliminating those that inhibit their non-specific binding to anionic POPC/POPS/dabsyl-PE (70:20:10) vesicles. The quality of the screening system was evaluated using 1% dimethylsulfoxide (DMSO) and 20 μM D-myo-inositol-1,3,4,5-tetraphosphate (IP4) as negative and positive controls, respectively. The clear separation of positive and negative control data and the average Z′-factor of 0.7 supported the robustness of our system for high-throughput screen of PIP3-SH2 interaction inhibitors.

[2] = test system: BCR signaling axis (Syk-BLNK-PLCγ2); test: Western blot of BCR signaling axis in Raji B lymphocytes; format: cell-based; conditions: Raji B cells
Method: Cells were seeded at a density of 3.0×10^5 cells/well prior to incubation with inhibitors. Cells were incubated with 1-5 μM of Syk inhibitors overnight and stimulated with different antibodies: IgG2 for AML cells, IgM for Raji B cells, and OKT3 (Biolegend) for Jurkat cells. The cells were lysed in NP40 lysis buffer (50 mM Tris, pH 7.5, 150 mM NaCl, 1 mM EDTA, 1% NP40, 10% glycerol, 10 mM NaF, 10 mM Na3VO4, and the protease inhibitor cocktail) at 4° C. and the cell debris was removed by centrifugation. Samples were analyzed by SDS-PAGE. Proteins were separated and transferred to Immobilon-P polyvinylidene difluoride membrane (Millipore Sigma). The membrane was blocked with 5% bovine serum albumin for 1 h and incubated overnight at 4° C. with various antibodies (1:1000 dilution for all antibodies). After the unbound antibodies were removed by washing with 0.1% Tris buffer saline with 0.1% Tween20, the membranes were incubated with the horseradish peroxidase secondary antibody (1:5000 dilution) for 1 h at room temperature. The membranes were washed three more times with 0.1% Tris buffer saline with 0.1% Tween20 to remove the unbound horseradish peroxidase secondary antibody before imaging. The chemiluminescence intensity of protein bands in the gel was analyzed and documented by the Azure 500Q Imaging System.

[3] = molecular target: T2, PLCγ2-cSH2 (Homo sapiens, UniProt P16885); test: Fluorescence quenching vesicle binding assay, PLCγ2-cSH2; conditions: Table 2, PLCγ2-cSH2 binding to POPC/POPS/PIP3/dabsyl-PE vesicles; for Emax: read-out: Imax (%)
T2 construct: polyhistidine (N); made in house; host or cells: Escherichia coli BL21 (DE3) pLysS
T2 sequence (P16885 646-735 limits assumed): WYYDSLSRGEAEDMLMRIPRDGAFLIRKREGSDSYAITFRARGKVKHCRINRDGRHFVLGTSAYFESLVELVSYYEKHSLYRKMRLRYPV
Method: as §1, §2

[4] = molecular target: T3, Syk-cSH2 (Homo sapiens, UniProt P43405); test: Fluorescence quenching vesicle binding assay, Syk-cSH2
T3 construct: polyhistidine (N); made in house; host or cells: Escherichia coli BL21 (DE3) pLysS
Method: as §1, §2

[5] = Table 2, Syk-cSH2 binding to POPC/POPS/PIP3/dabsyl-PE vesicles
[6] = Table 3, efficacy determined by the vesicle binding assay
[7] = Table 3, efficacy determined by the vesicle binding assay, read-out: IC50

Compound	Imax (%) [4, 6]	IC50 [4, 7] [µM]	further results
CCOC(=O)NC(C(=O)OCC)c1cccc(Cl)n1 (stereo not shown) [VG370]	–	–	Emax [1]: < 20%; effect on phosphorylation of BCR signaling proteins (Syk, BLNK, PLCγ2) [2]: selectively suppressed phosphorylation of PLCγ2; IC50 [3]: 0.68 ± 0.05 µM; Emax [3]: 40 to 50%; Imax (%) [4, 5]: <10%
OCCc1c(Cl)cncc1I [VG594]	–	–	IC50 [1]: 0.4 ± 0.03 µM; Emax [1]: 40 to 50%; effect on phosphorylation of BCR signaling proteins (Syk, BLNK, PLCγ2) [2]: blocked the phosphorylation of BLNK and PLCγ2 without a significant effect on Syk phosphorylation; Emax [3]: < 10%; Imax (%) [4, 5]: <10%
[N-]=[N+]=C(C(=O)OC1CCCCC1)C(Nc1ncccn1)c1ccc(O)cc1 (stereo not shown) [WC = 42]	Imax (%) = 12	4	–
COc1ccc(C(Nc2ncccn2)C(=[N+]=[N-])C(=O)OC2CCCCC2)cc1 (stereo not shown) [WC-30]	Imax (%) = 10	3.8	–
[N-]=[N+]=C(C(=O)OC1CCCCC1)C(Nc1ncccn1)c1ccc(F)cc1 (stereo not shown) [WC-32]	Imax (%) = 10	5	–
CN(C)c1ccc(C(Nc2ncccn2)C(=[N+]=[N-])C(=O)OC2CCCCC2)cc1 (stereo not shown) [WC-34]	Imax (%) = 10	2.8	–
[N-]=[N+]=C(C(=O)OC1CCCCC1)C(Nc1ncccn1)c1cccs1 (stereo not shown) [WC-37]	Imax (%) = 15	2.8	–
COc1cc(OC)cc(C(Nc2ncccn2)C(=[N+]=[N-])C(=O)OC2CCCCC2)c1 (stereo not shown) [WC-45]	Imax (%) = 12	3.6	–
[N-]=[N+]=C(C(=O)OC1CCCCC1)C(Nc1ncccn1)c1ccccc1 (stereo not shown) [WC-46]	Imax (%) = 10	5	–
CC(C)(C)OC(=O)C(=[N+]=[N-])C(Nc1ccccn1)c1ccc(Br)cc1 (stereo not shown) [WC-50]	Imax (%) = 10	4.5	–
[N-]=[N+]=C(C(=O)OC1CCCCC1)C(Nc1ccccn1)c1ccc(O)c(Br)c1 (stereo not shown) [WC-52]	Imax (%) = 12	3.5	–
Cc1ccc(C(Nc2ncccn2)C(=[N+]=[N-])C(=O)OC(C)(C)C)cc1 (stereo not shown) [WC-56]	Imax (%) ≤ 10	2	–
COc1cc(C(Nc2ncccn2)C(=[N+]=[N-])C(=O)OC(C)(C)C)cc(OC)c1OC (stereo not shown) [WC-59]	Imax (%) ≤ 10	4	–
[N-]=[N+]=C(C(=O)OC1CCCCC1)C(Nc1ccccn1)c1ccc(Br)cc1 (stereo not shown) [WC-62]	Imax (%) ≤ 10	5	–
[N-]=[N+]=C(C(=O)OC1CCCCC1)C(Nc1ncccn1)c1ccc(Br)cc1 (stereo not shown) [WC-68]	Imax (%) ≤ 10	4.5	–
[N-]=[N+]=C(C(=O)OC1CCCCC1)C(Nc1ncccn1)c1c(F)c(F)c(F)c(F)c1F (stereo not shown) [WC-70]	Imax (%) ≤ 10	2.5	–
Cc1ccc(C(Nc2cnccn2)C(=[N+]=[N-])C(=O)OC2CCCCC2)cc1 (stereo not shown) [WC-73]	Imax (%) ≤ 10	8	–
CCOP(=O)(OCC)C(=[N+]=[N-])C(Nc1ccccn1)c1ccc(C)cc1 (stereo not shown) [WC-75]	Imax (%) = 12	–	IC50 [4]: 7 µM
Cc1ccc(C(CC(=O)OC2CCCCC2)Nc2ncccn2)cc1 (stereo not shown) [WC-79]	Imax (%) ≤ 10	10	–

Compound	Imax (%) [4, 6]	IC50 [4, 7] [µM]	further results
Cc1ccc(/C(=C/C(=O)OC2CCCCC2)Nc2cnccn2)cc1 [WC-80]	Imax (%) = > 10	15	–
CCOP(=O)(/C=C(\Nc1ccccn1)c1ccc(C)cc1)OCC [WC-85]	Imax (%) ≤ 10	–	IC50 [4]: 12 µM
CCOC(=O)/C=C(\NS(=O)(=O)c1ccccc1)c1ccc(C)cc1 [WC-90]	Imax (%) ≤ 10	20	–
Cc1ccc(C(Nc2ncc(C)s2)C(=[N+]=[N-])C(=O)OC2CCCCC2)cc1 (stereo not shown) [WC-92]	Imax (%) = 15	10	–
Cc1ccc(C(Nc2cc(C)ccn2)C(=[N+]=[N-])C(=O)OC2CCCCC2)cc1 (stereo not shown) [WC-95]	Imax (%) ≤ 10	5	–
Cc1ccc(C(Nc2ncccn2)C(=[N+]=[N-])C(=O)OC2CCCC2)cc1 (stereo not shown) [WC-100]	Imax (%) = 18	2	–
Cc1ccc(C(Nc2ncccn2)C(=[N+]=[N-])C(=O)ON2CCC(C)CC2)cc1 (stereo not shown) [WC-105]	Imax (%) = 15	4	–
Cc1ccc(C(Nc2ncccn2)C(=[N+]=[N-])C(=O)ON2CCOCC2)cc1 (stereo not shown) [WC-108]	Imax (%) = 20	2	–
Cc1ccc(C(Nc2ncccn2)C(=[N+]=[N-])C(=O)ON2CCN(C)CC2)cc1 (stereo not shown) [WC-109]	Imax (%) = 25	2	–
CCOC(=O)C(=[N+]=[N-])C(Nc1ccccn1)c1ccccc1 (stereo not shown) [WC-110]	Imax (%) ≤ 10	5	–
CCOC(=O)C(=[N+]=[N-])C(Nc1ccccn1)c1ccc(O)cc1 (stereo not shown) [WC-111]	Imax (%) ≤ 10	7	–
CCOC(=O)C(=[N+]=[N-])C(Nc1ncccn1)c1ccc(O)cc1 (stereo not shown) [WC-115]	Imax (%) = 20	2	–
[N-]=[N+]=C(C(=O)OC1CCCC1)C(Nc1ccccn1)c1ccccc1 (stereo not shown) [WC-118]	Imax (%) = 15	4	–
[N-]=[N+]=C(C(=O)OC1CCCC1)C(Nc1ncccn1)c1ccc(C(F)(F)F)cc1 (stereo not shown) [WC-120]	Imax (%) = 20	4	–
CCOC(=O)C(=[N+]=[N-])C(Nc1ccccn1)c1ccc(C(F)(F)F)cc1 (stereo not shown) [WC-121]	Imax (%) ≤ 10	4.8	–
[N-]=[N+]=C(C(=O)OC1CCCCC1)C(Nc1cnccn1)c1cccnc1 (stereo not shown) [WC-125]	Imax (%) = 20	1.5	–
CCOC(=O)C(=[N+]=[N-])C(Nc1ccccn1)c1cccnc1 (stereo not shown) [WC-128]	Imax (%) = 18	3.5	–
[N-]=[N+]=C(C(=O)OC1CCCCC1)C(Nc1ncccn1)c1ccncc1 (stereo not shown) [WC-130]	Imax (%) = 25	2	–
[N-]=[N+]=C(C(=O)OC1CCCCC1)C(C=Cc1ccccc1)Nc1ncccn1 (stereo not shown) [WC-132]	Imax (%) = 15	5	–
